Assay results published in patent US12435072B2, “Compounds” (Vicore Pharma AB, priority 2019, dated 2025).
Like-named read-outs stand apart in the source and are kept apart here.

What was measured:
[1] = Metabolic stability in pooled human liver microsomes; assay type: in vitro ADME; conditions: pooled human liver microsomes 0.5 mg/ml, 1 μM test compound, 37° C.
[2] = molecular target: T1, human recombinant AT2 receptor (Homo sapiens, UniProt P50052); assay: Binding to AT2 receptor, radiometric scintillation assay (Eurofins); conditions: ligand 125I CGP 42112A, tested at 1, 10, 100 and 1000 nM
T1 construct: purchased Eurofins ITEM26
T1 sequence (P50052 1-363): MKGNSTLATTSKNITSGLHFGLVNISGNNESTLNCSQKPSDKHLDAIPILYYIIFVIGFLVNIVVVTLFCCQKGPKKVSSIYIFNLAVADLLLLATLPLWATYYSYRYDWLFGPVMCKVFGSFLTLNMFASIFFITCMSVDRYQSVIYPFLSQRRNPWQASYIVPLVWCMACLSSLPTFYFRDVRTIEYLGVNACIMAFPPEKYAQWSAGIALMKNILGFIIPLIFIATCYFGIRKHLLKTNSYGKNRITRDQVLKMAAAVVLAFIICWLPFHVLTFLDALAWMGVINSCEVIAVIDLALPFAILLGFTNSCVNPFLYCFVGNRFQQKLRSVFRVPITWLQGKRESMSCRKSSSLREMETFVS
Experimental: (§1) Compounds were evaluated for binding to the human recombinant AT2 and AT1 receptor according to Eurofins protocol ITEM26 and ITEM24 using a radiometric scintillation assay.

[3] = molecular target: T2, human recombinant AT1 receptor (Homo sapiens, UniProt P30556); assay: Binding to AT1 receptor, radiometric scintillation assay (Eurofins); conditions: ligand 125I(sar1,Ile8)-AT-II, tested at 1 and 10 μM
T2 construct: purchased Eurofins ITEM24
T2 sequence (P30556 1-359): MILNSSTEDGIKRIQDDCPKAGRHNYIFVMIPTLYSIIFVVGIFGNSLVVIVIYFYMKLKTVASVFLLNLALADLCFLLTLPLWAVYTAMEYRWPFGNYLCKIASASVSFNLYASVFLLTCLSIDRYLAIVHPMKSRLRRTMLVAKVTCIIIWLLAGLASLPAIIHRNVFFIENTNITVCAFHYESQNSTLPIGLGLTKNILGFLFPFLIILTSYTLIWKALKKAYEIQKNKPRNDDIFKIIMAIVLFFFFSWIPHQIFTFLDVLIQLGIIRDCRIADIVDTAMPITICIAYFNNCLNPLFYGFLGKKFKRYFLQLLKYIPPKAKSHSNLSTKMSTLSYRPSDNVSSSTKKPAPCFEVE
Experimental: as §1

[4] = molecular target: T3, CYP1A (Homo sapiens, UniProt P05177); assay: CYP inhibition in human liver microsomes, CYP1A; assay type: in vitro ADME; conditions: probe phenacetin, substrate phenacetin, read-out: CYP1A Inh %
T3 construct: incubated with human liver microsomes; tissue Eurofins ITEMG232; host or cells: human liver microsomes
T3 sequence (P05177 1-516): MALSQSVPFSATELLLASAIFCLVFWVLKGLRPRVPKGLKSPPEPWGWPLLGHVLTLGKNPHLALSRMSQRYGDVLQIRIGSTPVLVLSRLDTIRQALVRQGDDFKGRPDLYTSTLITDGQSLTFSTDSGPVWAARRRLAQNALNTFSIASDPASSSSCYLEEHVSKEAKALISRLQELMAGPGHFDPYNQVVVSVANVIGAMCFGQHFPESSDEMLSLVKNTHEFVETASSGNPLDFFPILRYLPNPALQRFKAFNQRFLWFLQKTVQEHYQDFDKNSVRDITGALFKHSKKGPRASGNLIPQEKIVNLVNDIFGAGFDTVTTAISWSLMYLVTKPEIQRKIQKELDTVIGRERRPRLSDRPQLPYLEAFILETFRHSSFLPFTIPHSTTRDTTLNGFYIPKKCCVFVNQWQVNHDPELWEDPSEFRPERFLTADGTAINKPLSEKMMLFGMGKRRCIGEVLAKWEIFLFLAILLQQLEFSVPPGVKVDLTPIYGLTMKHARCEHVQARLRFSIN
Experimental: (§2) The following substrates were used: CYP1A phenacetin, CYP2B6 bupropion, CYP2C8 paclitaxel and amodiaquine, CYP2C9 diclofenac, CYP2C19 omeprazole, CYP2D6 dextromethorphan, CYP3A midazolam and testosterone. At the end of the incubation, the formation of metabolite was monitored by HPLC-MS/MS as the peak area response.

[5] = molecular target: T4, CYP2C19 (Homo sapiens, UniProt P33261); assay: CYP inhibition in human liver microsomes, CYP2C19; assay type: in vitro ADME; conditions: probe omeprazole, substrate omeprazole, read-out: CYP2C19 Inh %
T4 construct: incubated with human liver microsomes; tissue Eurofins ITEMG232; host or cells: human liver microsomes
T4 sequence (P33261 whole entry): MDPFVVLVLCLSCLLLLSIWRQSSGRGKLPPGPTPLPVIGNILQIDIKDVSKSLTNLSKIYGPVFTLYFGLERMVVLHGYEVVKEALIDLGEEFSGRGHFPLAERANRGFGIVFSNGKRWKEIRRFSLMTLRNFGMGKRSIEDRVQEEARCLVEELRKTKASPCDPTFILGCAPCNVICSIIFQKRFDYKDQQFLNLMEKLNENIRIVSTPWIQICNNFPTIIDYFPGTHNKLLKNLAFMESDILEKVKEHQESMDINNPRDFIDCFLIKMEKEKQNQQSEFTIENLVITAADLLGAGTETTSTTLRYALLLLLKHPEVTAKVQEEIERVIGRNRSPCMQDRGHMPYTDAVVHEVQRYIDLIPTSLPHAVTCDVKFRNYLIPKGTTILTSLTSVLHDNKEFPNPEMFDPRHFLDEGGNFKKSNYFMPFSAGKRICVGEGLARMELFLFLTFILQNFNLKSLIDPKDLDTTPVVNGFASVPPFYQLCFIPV
Experimental: as §2

[6] = molecular target: T5, CYP2D6 (Homo sapiens, UniProt P10635); assay: CYP inhibition in human liver microsomes, CYP2D6; assay type: in vitro ADME; conditions: probe dextromethorphan, substrate dextromethorphan, read-out: CYP2D6 Inh %
T5 construct: incubated with human liver microsomes; tissue Eurofins ITEMG232; host or cells: human liver microsomes
T5 sequence (P10635 whole entry): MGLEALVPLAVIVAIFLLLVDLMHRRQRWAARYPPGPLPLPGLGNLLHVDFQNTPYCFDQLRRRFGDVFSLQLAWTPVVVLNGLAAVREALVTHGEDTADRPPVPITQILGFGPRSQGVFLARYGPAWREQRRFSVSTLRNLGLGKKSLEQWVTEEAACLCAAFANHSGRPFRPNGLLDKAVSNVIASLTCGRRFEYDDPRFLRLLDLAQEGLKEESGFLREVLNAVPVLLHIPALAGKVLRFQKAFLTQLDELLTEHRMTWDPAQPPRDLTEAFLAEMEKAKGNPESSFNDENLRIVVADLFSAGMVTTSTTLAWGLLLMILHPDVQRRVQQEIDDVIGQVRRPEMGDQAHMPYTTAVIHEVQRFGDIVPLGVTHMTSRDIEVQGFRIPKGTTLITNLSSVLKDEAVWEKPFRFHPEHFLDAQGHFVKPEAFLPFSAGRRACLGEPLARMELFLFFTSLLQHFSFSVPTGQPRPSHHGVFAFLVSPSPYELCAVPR
Outline: (§3)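 Metabolite formation, quantified by HPLC-MS/MS peak area at the end of incubation, served as the read-out. Probe substrates in the microsomes were diclofenac (CYP2C9), dextromethorphan (CYP2D6), and paclitaxel or amodiaquine (CYP2C8).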

[7] = test system: CYP3A4&5; assay: CYP inhibition in human liver microsomes, CYP3A4&5 (testosterone); assay type: in vitro ADME; conditions: probe testosterone, substrate testosterone, read-out: CYP3A4&5 testosterone Inh %
Experimental: as §2

[8] = molecular target: CYP2C9 (Homo sapiens, UniProt P11712); assay: CYP inhibition in human liver microsomes, CYP2C9; assay type: in vitro ADME; parameters: incubated with human liver microsomes; tissue Eurofins ITEMG232; host or cells: human liver microsomes; conditions: probe diclofenac, substrate diclofenac, read-out: CYP2C9 Inh %
CYP2C9, sequence (P11712 whole entry): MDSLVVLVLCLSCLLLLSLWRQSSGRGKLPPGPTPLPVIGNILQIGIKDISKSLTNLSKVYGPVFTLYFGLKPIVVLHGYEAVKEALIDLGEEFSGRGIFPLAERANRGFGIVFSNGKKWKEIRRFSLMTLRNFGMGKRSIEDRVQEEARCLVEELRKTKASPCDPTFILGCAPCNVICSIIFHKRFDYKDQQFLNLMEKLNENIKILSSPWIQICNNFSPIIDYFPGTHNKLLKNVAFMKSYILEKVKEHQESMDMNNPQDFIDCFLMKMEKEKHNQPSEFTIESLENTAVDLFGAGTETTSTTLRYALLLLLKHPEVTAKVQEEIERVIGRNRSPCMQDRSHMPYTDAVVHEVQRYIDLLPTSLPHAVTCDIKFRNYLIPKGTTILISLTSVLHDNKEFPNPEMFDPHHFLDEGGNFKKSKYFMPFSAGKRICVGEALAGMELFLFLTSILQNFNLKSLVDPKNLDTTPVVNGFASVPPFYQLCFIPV
Outline: as §3

[9] = with 1 mM NADPH, read-out: T1/2, + NaDPH
[10] = without NADPH, read-out: T1/2, no NaDPH

half-life at 1 μM [1, 9] [h] | half-life at 1 μM [1, 10] [h] | IC50 [2] [nM] | IC50 [3] [nM] | inhibition at 10 µM [4] [%] | inhibition at 10 µM [5] [%] | inhibition at 10 µM [6] [%] | inhibition at 10 µM [7] [%] | inhibition at 10 µM [8] [%] | SMILES
0.45 | > 1 | 16.6 | 25000 | 13 | 58 | 19 | 13 | 48 | Cc1nccn1Cc1ccc(-c2cc(CC(C)C)sc2S(=O)(=O)NC(=O)NCc2cc(Cl)ccn2)cc1F.O=C(O)C(F)(F)F [Example 38, 1-[(4-chloropyridin-2-yl)methyl]-3-[(3-{3-fluoro-4-[(2-methyl-1H-imidazol-1-yl)methyl]phenyl}-5-(2-methylpropyl)thiophen-2-yl)sulfonyl]urea trifluoroacetic acid]
0.117 | > 1 | 1.6 | 5000 | -26 | 67 | 39 | 10 | 49 | CCc1nccn1Cc1ccc(-c2cc(CC(C)C)sc2S(=O)(=O)NC(=O)NCc2ccc(F)cc2)cc1F.O=C(O)C(F)(F)F [Example 32, 3-[(3-{4-[(2-ethyl-1H-imidazol-1-yl)methyl]-3-fluorophenyl}-5-(2-methylpropyl)thiophen-2-yl)sulfonyl]-1-[(4-fluorophenyl)methyl] urea trifluoroacetic acid]
1 | > 1 | 2.5 | 30000 | 8 | 56 | 16 | 15 | 50 | Cc1nccn1Cc1ccc(-c2cc(CC(C)C)sc2S(=O)(=O)NC(=O)NC(C)c2ccccn2)cc1F (stereo not drawn) [Example 25, 3-(3-{3-Fluoro-4-[(2-methyl-1H-imidazol-1-yl)methyl]phenyl}-5-isobutyl-2-thienylsulfonyl)-1-[1-(2-pyridyl)ethyl]urea]
> 1 | > 1 | 5.1 | 19000 | 14 | 26 | 18 | 11 | 34 | CCCNC(=O)NS(=O)(=O)c1sc(CC(C)C)cc1-c1ccc(Cn2ccnc2CC)c(F)c1.O=C(O)C(F)(F)F [Example 33, 1-[(3-{4-[(2-ethyl-1H-imidazol-1-yl)methyl]-3-fluorophenyl}-5-(2-methylpropyl)thiophen-2-yl)sulfonyl]-3-propylurea trifluoroacetic acid]
1.5 | > 1 | 3.3 | 25000 | 13 | 62 | 30 | 33 | 65 | Cc1nccn1Cc1ccc(-c2cc(CC(C)C)sc2S(=O)(=O)NC(=O)NCCC(F)(F)F)cc1F [Example 14, 3-(3-{3-Fluoro-4-[(2-methyl-1H-imidazol-1-yl)methyl]phenyl}-5-isobutyl-2-thienylsulfonyl)-1-(3,3,3-trifluoropropyl)urea]
1 | > 1 | 8.6 | 16000 | -2 | 56 | 10 | 27 | 44 | Cc1nccn1Cc1ccc(-c2cc(CC(C)C)sc2S(=O)(=O)NC(=O)NCC(C)C)cc1F.O=C(O)C(F)(F)F [Example 39, 1-[(3-{3-fluoro-4-[(2-methyl-1H-imidazol-1-yl)methyl]phenyl}-5-(2-methylpropyl)thiophen-2-yl)sulfonyl]-3-(2-methylpropyl)urea trifluoroacetic acid]
> 1 | > 1 | 15.2 | > 10000 | 10.6 | 37.9 | 3.2 | 3 | 10.2 | CCc1nccn1Cc1ccc(-c2cc(CC(C)C)sc2S(=O)(=O)NC(=O)NCCOC)cc1 [Example 7, 3-(3-{p-[(2-Ethyl-1H-imidazol-1-yl)methyl]phenyl}-5-isobutyl-2-thienylsulfonyl)-1-(2-methoxy-ethyl)urea]
0.4 | > 1 | 3.5 | > 1000 | 6.8 | 57 | 27.3 | 13.2 | 51.4 | CCc1nccn1Cc1ccc(-c2cc(CC(C)C)sc2S(=O)(=O)NC(=O)NCc2ccccc2)cc1 [Example 6, 1-Benzyl-3-(3-{p-[(2-ethyl-1H-imidazol-1-yl)methyl]phenyl}-5-isobutyl-2-thienylsulfonyl)-urea]
